Results from US20170050957A1, “4-AMINO-6-(HETEROCYCLIC)PICOLINATES AND 6-AMINO-2-(HETEROCYCLIC)PYRIMIDINE-4-CARBOXYLATES AND THEIR USE AS HERBICIDES” (Dow AgroSciences LLC, priority 2013, published 2017).

System: Wheat and Barley and test plant species
Assay: Post-emergent Test III, herbicidal activity in wheat and barley (Table 17; visual injury, GR20/GR50/GR80/GR90)
Assay type: in vivo
Settings: 21 d; for Visual Growth Reduction (%) 21 Days After Application, CIRAR / Visual Growth Reduction (%) 21 Days After Application, GALAP / Visual Growth Reduction (%) 21 Days After Application, HORVS / Visual Growth Reduction (%) 21 Days After Application, KCHSC / Visual Growth Reduction (%) 21 Days After Application, LAMPU / Visual Growth Reduction (%) 21 Days After Application, MATCH / Visual Growth Reduction (%) 21 Days After Application, PAPRH / Visual Growth Reduction (%) 21 Days After Application, SASKR / Visual Growth Reduction (%) 21 Days After Application, SINAR / Visual Growth Reduction (%) 21 Days After Application, TRZAS / Visual Growth Reduction (%) 21 Days After Application, VERPE / Visual Growth Reduction (%) 21 Days After Application, VIOTR: post-emergent
Method: Post-emergent Test III. Seeds of the desired test plant species were planted in Sun Gro MetroMix® 306 planting mixture, which typically has a pH of 6.0 to 6.8 and an organic matter content of about 30 percent, in plastic pots with a surface area of 103.2 square centimeters (cm^2). When required to ensure good germination and healthy plants, a fungicide treatment and/or other chemical or physical treatment was applied. The plants were grown for 7-36 days (d) in a greenhouse with an approximate 14 hour (h) photoperiod which was maintained at about 18° C. during the day and 17° C. during the night. Nutrients and water were added on a regular basis and supplemental lighting was provided with overhead metal halide 1000-Watt lamps as necessary. The plants were employed for testing when they reached the second or third true leaf stage.
A weighed amount, determined by the highest rate to be tested, of each test compound was placed in a 25 mL glass vial and was dissolved in 4 mL of a 97:3 v/v mixture of acetone and DMSO to obtain concentrated stock solutions. […] The concentrated stock solutions obtained were diluted with 20 mL of an aqueous mixture containing acetone, water, isopropyl alcohol, DMSO, Agri-Dex crop oil concentrate, and X-77 surfactant in a 48:39:10:1.5:1.5:0.02 v/v ratio to obtain spray solutions containing the highest application rates. Additional application rates were obtained by serial dilution of 12 mL of the high rate solution into a solution containing 2 mL of 97:3 v/v mixture of acetone and DMSO and 10 mL of an aqueous mixture containing acetone, water, isopropyl alcohol, DMSO, Agri-Dex crop oil concentrate, and X-77 surfactant in a 48:39:10:1.5:1.5:0.02 v/v ratio to obtain 1/2×, 1/4×, 1/8× and 1/16× rates of the high rate. Compound requirements are based upon a 12 mL application volume at a rate of 187 liters per hectare (L/ha). Formulated compounds were applied to the plant material with an overhead Mandel track sprayer equipped with 8002E nozzles calibrated to deliver 187 L/ha over an application area of 0.503 square meters at a spray height of 18 inches (43 cm) above the average plant canopy height. Control plants were sprayed in the same manner with the solvent blank.
The treated plants and control plants were placed in a greenhouse as described above and watered by subirrigation to prevent wash-off of the test compounds. After 21 d, the condition of the test plants as compared with that of the untreated plants was determined visually and scored on a scale of 0 to 100 percent where 0 corresponds to no injury and 100 corresponds to complete kill. By applying the well-accepted probit analysis as described by J. Berkson in Journal of the American Statistical […], 48, 565 (1953) and by D. Finney in “Probit Analysis” Cambridge University Press (1952), the above data can be used to calculate GR20, GR50, GR80 and GR90 values, which are defined as growth reduction factors that correspond to the effective dose of herbicide required to kill or control 20 percent, 50 percent, 80 percent or 90 percent, respectively, of a target plant.

Nc1c(F)c(-c2ccc3cc[nH]c3c2F)nc(C(=O)O)c1Cl [Compound 1.16, 4-Amino-3-chloro-5-fluoro-6-(7-fluoro-1H-indol-6-yl)picolinic acid]
Visual Growth Reduction (%) 21 Days After Application, CIRAR (CIRAR, 17.5 g ai/ha): D (60-74) | Visual Growth Reduction (%) 21 Days After Application, CIRAR (CIRAR, 35 g ai/ha): B (85-94) | Visual Growth Reduction (%) 21 Days After Application, CIRAR (CIRAR, 70 g ai/ha): A (95-100) | GR50, CIRAR (CIRAR, dose for 50 percent growth reduction, probit analysis): 9 g ai/ha | GR80, CIRAR (CIRAR, dose for 80 percent growth reduction, probit analysis): 25 g ai/ha | GR90, CIRAR (CIRAR, dose for 90 percent growth reduction, probit analysis): 43 g ai/ha | Visual Growth Reduction (%) 21 Days After Application, GALAP (GALAP, 17.5 g ai/ha): F (30-44) | Visual Growth Reduction (%) 21 Days After Application, GALAP (GALAP, 35 g ai/ha): E (45-59) | Visual Growth Reduction (%) 21 Days After Application, GALAP (GALAP, 70 g ai/ha): A (95-100) | GR50, GALAP (GALAP, dose for 50 percent growth reduction, probit analysis): 26 g ai/ha | GR80, GALAP (GALAP, dose for 80 percent growth reduction, probit analysis): 34 g ai/ha | GR90, GALAP (GALAP, dose for 90 percent growth reduction, probit analysis): 40 g ai/ha | Visual Growth Reduction (%) 21 Days After Application, HORVS (HORVS, 17.5 g ai/ha): G (0-29) | Visual Growth Reduction (%) 21 Days After Application, HORVS (HORVS, 35 g ai/ha): G (0-29) | Visual Growth Reduction (%) 21 Days After Application, HORVS (HORVS, 70 g ai/ha): F (30-44) | GR20, HORVS (HORVS, dose for 20 percent growth reduction, probit analysis): 44 g ai/ha | Visual Growth Reduction (%) 21 Days After Application, KCHSC (KCHSC, 17.5 g ai/ha): C (75-84) | Visual Growth Reduction (%) 21 Days After Application, KCHSC (KCHSC, 35 g ai/ha): B (85-94) | Visual Growth Reduction (%) 21 Days After Application, KCHSC (KCHSC, 70 g ai/ha): A (95-100) | GR50, KCHSC (KCHSC, dose for 50 percent growth reduction, probit analysis): 7 g ai/ha | GR80, KCHSC (KCHSC, dose for 80 percent growth reduction, probit analysis): 20 g ai/ha | GR90, KCHSC (KCHSC, dose for 90 percent growth reduction, probit analysis): 39 g ai/ha | Visual Growth Reduction (%) 21 Days After Application, LAMPU (LAMPU, 17.5 g ai/ha): C (75-84) | Visual Growth Reduction (%) 21 Days After Application, LAMPU (LAMPU, 35 g ai/ha): A (95-100) | Visual Growth Reduction (%) 21 Days After Application, LAMPU (LAMPU, 70 g ai/ha): A (95-100) | GR50, LAMPU (LAMPU, dose for 50 percent growth reduction, probit analysis): 3 g ai/ha | GR80, LAMPU (LAMPU, dose for 80 percent growth reduction, probit analysis): 10 g ai/ha | GR90, LAMPU (LAMPU, dose for 90 percent growth reduction, probit analysis): 19 g ai/ha | Visual Growth Reduction (%) 21 Days After Application, MATCH (MATCH, 17.5 g ai/ha): B (85-94) | Visual Growth Reduction (%) 21 Days After Application, MATCH (MATCH, 35 g ai/ha): A (95-100) | Visual Growth Reduction (%) 21 Days After Application, MATCH (MATCH, 70 g ai/ha): A (95-100) | GR50, MATCH (MATCH, dose for 50 percent growth reduction, probit analysis): 3 g ai/ha | GR80, MATCH (MATCH, dose for 80 percent growth reduction, probit analysis): 9 g ai/ha | GR90, MATCH (MATCH, dose for 90 percent growth reduction, probit analysis): 16 g ai/ha | Visual Growth Reduction (%) 21 Days After Application, PAPRH (PAPRH, 17.5 g ai/ha): A (95-100) | Visual Growth Reduction (%) 21 Days After Application, PAPRH (PAPRH, 35 g ai/ha): A (95-100) | Visual Growth Reduction (%) 21 Days After Application, PAPRH (PAPRH, 70 g ai/ha): A (95-100) | GR50, PAPRH (PAPRH, dose for 50 percent growth reduction, probit analysis): 0.0004 g ai/ha | GR80, PAPRH (PAPRH, dose for 80 percent growth reduction, probit analysis): 0.0004 g ai/ha | GR90, PAPRH (PAPRH, dose for 90 percent growth reduction, probit analysis): 0.0004 g ai/ha | Visual Growth Reduction (%) 21 Days After Application, SASKR (SASKR, 17.5 g ai/ha): D (60-74) | Visual Growth Reduction (%) 21 Days After Application, SASKR (SASKR, 35 g ai/ha): C (75-84) | Visual Growth Reduction (%) 21 Days After Application, SASKR (SASKR, 70 g ai/ha): B (85-94) | GR50, SASKR (SASKR, dose for 50 percent growth reduction, probit analysis): 10 g ai/ha | GR80, SASKR (SASKR, dose for 80 percent growth reduction, probit analysis): 28 g ai/ha | GR90, SASKR (SASKR, dose for 90 percent growth reduction, probit analysis): 78 g ai/ha | Visual Growth Reduction (%) 21 Days After Application, SINAR (SINAR, 17.5 g ai/ha): B (85-94) | Visual Growth Reduction (%) 21 Days After Application, SINAR (SINAR, 35 g ai/ha): A (95-100) | Visual Growth Reduction (%) 21 Days After Application, SINAR (SINAR, 70 g ai/ha): A (95-100) | GR50, SINAR (SINAR, dose for 50 percent growth reduction, probit analysis): 5 g ai/ha | GR80, SINAR (SINAR, dose for 80 percent growth reduction, probit analysis): 11 g ai/ha | GR90, SINAR (SINAR, dose for 90 percent growth reduction, probit analysis): 17 g ai/ha | Visual Growth Reduction (%) 21 Days After Application, TRZAS (TRZAS, 17.5 g ai/ha): G (0-29) | Visual Growth Reduction (%) 21 Days After Application, TRZAS (TRZAS, 35 g ai/ha): G (0-29) | Visual Growth Reduction (%) 21 Days After Application, TRZAS (TRZAS, 70 g ai/ha): F (30-44) | GR20, TRZAS (TRZAS, dose for 20 percent growth reduction, probit analysis): 41 g ai/ha | Visual Growth Reduction (%) 21 Days After Application, VERPE (VERPE, 17.5 g ai/ha): A (95-100) | Visual Growth Reduction (%) 21 Days After Application, VERPE (VERPE, 35 g ai/ha): A (95-100) | Visual Growth Reduction (%) 21 Days After Application, VERPE (VERPE, 70 g ai/ha): A (95-100) | GR50, VERPE (VERPE, dose for 50 percent growth reduction, probit analysis): 0.0004 g ai/ha | GR80, VERPE (VERPE, dose for 80 percent growth reduction, probit analysis): 0.05 g ai/ha | GR90, VERPE (VERPE, dose for 90 percent growth reduction, probit analysis): 1 g ai/ha | Visual Growth Reduction (%) 21 Days After Application, VIOTR (VIOTR, 17.5 g ai/ha): E (45-59) | Visual Growth Reduction (%) 21 Days After Application, VIOTR (VIOTR, 35 g ai/ha): D (60-74) | Visual Growth Reduction (%) 21 Days After Application, VIOTR (VIOTR, 70 g ai/ha): C (75-84) | GR50, VIOTR (VIOTR, dose for 50 percent growth reduction, probit analysis): 19 g ai/ha | GR80, VIOTR (VIOTR, dose for 80 percent growth reduction, probit analysis): 56 g ai/ha | GR90, VIOTR (VIOTR, dose for 90 percent growth reduction, probit analysis): 99 g ai/ha
